The values below come from patent US20260263555A1, “ANNEXIN A1 DELAYED DOSING” (Reso Ther Pharma A/S, priority 2023, published 2026).

In assay [1] the test system is rat model of acute myocardial infarction. Briefly: Delayed Annexin A1 peptide dosing in a rat model of acute myocardial infarction (30 minutes ischemia, 24 hours reperfusion; Evans blue/TTC infarct size). Type of assay: in vivo, Sprague Dawley rats. As to conditions: vs vehicle. The protocol:
Myocardial infarction was induced by 30 minutes ischemia via obstruction of coronary perfusion by occlusion of the left coronary artery followed by 24 hours reperfusion. Sprague Dawley rats were treated by administration with Peptide 1 (30 ug/kg) three times with treatment initiation either at the time of reperfusion (T0 h, T3 h, T6 h) (Group 1), or with a delayed treatment initiation starting either at 1 hour post establishment of reperfusion (T1 h, T4 h, T7 h) (Group 2), or at 2 hours post establishment of reperfusion (T2 h, T5 h, T8 h) (Group 3).
At the end of 24 hours reperfusion period, the left coronary artery was reoccluded and Evans blue dye solution injected. Hearts were excised from the rat and stored at −20° C. before being sliced into 1 mm thick transverse sections. Heart sections were incubated with triphenyltetrazolium chloride (TTC, 1%) at 37° C. for 30 minutes to demarcate the viable and nonviable myocardium within the risk zone. Area at risk and infarcted area were determined using image software.

Assay [2] relates to recruitment of neutrophils to the site of injury/inflammation. As to conditions: models of myocardial I/R, mesentery I/R, glycogen peritonitis and IL1 air pouch; cited from earlier work.

Entries after “also recorded” stand apart in the source; their conditions may differ. No end group written: not given here.

Consider “AMVSEFLKQAWFIENEEQEYVQTLKSSKGGPGSAVSPYPTFNPSSDV (AMVSEFLKQAWFIENEEQEYVQTLKSSKGGPGSAVSPYPTFNPSSDV-NH2; ends and bridges not checked) [Peptide 1]”, for which the infarct size result in assay [1] (Group 1: 30 ug/kg three times (T0 h, T3 h, T6 h), first dosage at establishment of reperfusion) is listed as “significantly reduced infarct size”; in assay [1] (Group 2: 30 ug/kg three times (T1 h, T4 h, T7 h), first dosage 1 hour post establishment of reperfusion), “reduced infarct size to a similar degree; also recorded: significantly reduced infarct size”; in assay [1] (Group 3: 30 ug/kg three times (T2 h, T5 h, T8 h), first dosage 2 hours post establishment of reperfusion), “reduced infarct size to a similar degree; also recorded: significantly reduced infarct size”.
For “Ac2-26: Annexin A1 peptide which mimics the 2nd to the 26th amino acids of the 54-amino acid N-terminal region (Ac-AMVSEFLKQAWFIENEEQEYVQTVK; UniProt P04083 2-26, looked up, fragment)”, the “recruitment of neutrophils to the site of injury/inflammation” value in assay [2] is listed as “significantly reduce the recruitment of neutrophils”.
